We go through seven compounds from ChEMBL document CHEMBL2150958, “Tuned-Affinity Bivalent Ligands for the Characterization of Opioid Receptor Heteromers” (ACS Med Chem Lett, 2012).

For assay [1], the target named is T1, Opioid receptors; mu and delta (Mus musculus, UniProt P42866+P32300). Briefly: Displacement of [3H]-DAMGO from mouse MOR/DOR expressed in HEK293 cells. It counts as cell-based. For orientation: Displacement assays read how much labelled ligand stays bound in the presence of the test substance.
In assay [2] the target is T1, Opioid receptors; mu and delta. Nature of the assay: Displacement of [3H]-DPDPE from mouse MOR/DOR expressed in HEK293 cells. It counts as cell-based.
A further assay concerns the target Mu-type opioid receptor (Mus musculus, UniProt P42866). Briefly: Displacement of [3H]-DAMGO from mouse MOR expressed in HEK293 cells. The assay is classed as cell-based.
Assay [3] deals with Delta-type opioid receptor (Mus musculus, UniProt P32300). Nature of the assay: Displacement of [3H]-DPDPE from mouse DOR expressed in HEK293 cells. It counts as cell-based.
The species named for a further assay is Mus musculus. Nature of the assay: Selectivity ratio of Ki for mouse DOR to Ki for mouse MOR/DOR.

Sequence of Mu-type opioid receptor (P42866 whole entry): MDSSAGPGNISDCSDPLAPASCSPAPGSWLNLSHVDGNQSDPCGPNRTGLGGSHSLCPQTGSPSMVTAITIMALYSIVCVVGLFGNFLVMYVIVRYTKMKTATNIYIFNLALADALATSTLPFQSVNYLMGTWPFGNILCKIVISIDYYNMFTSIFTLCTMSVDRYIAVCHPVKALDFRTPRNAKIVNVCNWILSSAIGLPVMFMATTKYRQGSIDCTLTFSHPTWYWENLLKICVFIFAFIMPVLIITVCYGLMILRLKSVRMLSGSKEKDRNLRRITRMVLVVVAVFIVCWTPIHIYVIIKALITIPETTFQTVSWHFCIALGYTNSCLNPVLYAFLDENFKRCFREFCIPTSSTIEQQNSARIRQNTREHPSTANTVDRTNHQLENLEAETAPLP
Sequence of Delta-type opioid receptor (P32300 whole entry): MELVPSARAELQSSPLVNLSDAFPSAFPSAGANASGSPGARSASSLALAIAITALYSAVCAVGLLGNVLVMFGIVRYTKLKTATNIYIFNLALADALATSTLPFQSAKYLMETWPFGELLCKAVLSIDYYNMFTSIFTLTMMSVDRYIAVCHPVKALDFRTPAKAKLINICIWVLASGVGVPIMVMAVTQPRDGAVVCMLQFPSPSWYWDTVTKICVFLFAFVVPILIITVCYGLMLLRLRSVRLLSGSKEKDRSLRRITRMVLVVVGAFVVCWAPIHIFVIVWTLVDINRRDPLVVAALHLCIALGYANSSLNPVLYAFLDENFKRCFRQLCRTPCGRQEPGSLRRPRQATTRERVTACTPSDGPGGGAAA

Usually pKi stands for the negative decadic logarithm of the Ki, by convention in mol/L. Low values mean a high Ki, high ones a low Ki. As usually defined, the Ki is a measure of affinity in units of concentration, obtained from inhibition or displacement. Higher therefore signals a looser hold on the target. Take `CNC(=O)COCC(=O)NCCCCCNC(=O)COCC(=O)N[C@@H]1CC[C@@]2(O)[C@H]3Cc4ccc(O)c5c4[C@@]2(CCN3CC2CC2)[C@H]1O5`: the negative-log Ki (pKi) was found to be 8.38 in assay [1] and 7.79 in assay [2]. For the same compound, the Ki at Mu-type opioid receptor is 0.324 nM; in assay [3], 30.9 nM.
For `Nc1cccc2c3c([nH]c12)[C@@H]1Oc2c(OCCc4ccccc4)ccc4c2[C@@]12CCN(CC1CC1)[C@H](C4)[C@]2(O)C3` the same measures were 6.94, 7.46, 120 nM and 91.2 nM.
`CCN(CC)C(=O)c1ccc(C(=C2CCNCC2)c2c(C)cc(NC(=O)COCC(=O)NCCCCCNC(=O)COCC(=O)N[C@@H]3CC[C@@]4(O)[C@H]5Cc6ccc(O)c7c6[C@@]4(CCN5CC4CC4)[C@H]3O7)cc2C)cc1.Cl`: the pKi in assay [1] is reported as > 9; in assay [2], 8.6. Further, the inhibition constant Ki at Mu-type opioid receptor is < 1 nM; in assay [3], 20 nM. For the same compound, the Ratio Ki in the assay listed under Mus musculus came to 10.
With `CNC(=O)COCC(=O)NCCCCCNC(=O)COCC(=O)N[C@H]1CC[C@@]2(O)[C@H]3Cc4ccc(O)c5c4[C@@]2(CCN3C)[C@H]1O5`, the pKi in assay [1] is recorded as 6.9. For the same compound, the Ki at Mu-type opioid receptor is 22.4 nM.
Consider `CN1CC[C@]23c4c5ccc(O)c4O[C@H]2[C@@H](NC(=O)COCC(=O)NCCCCCNC(=O)COCC(=O)Nc2cccc4c6c([nH]c24)[C@@H]2Oc4c(OCCc7ccccc7)ccc7c4[C@@]24CCN(CC2CC2)[C@H](C7)[C@]4(O)C6)CC[C@@]3(O)[C@H]1C5.Cl`, for which the pKi in assay [1] worked out at 8.21; in assay [2], 7.34. Also, the inhibition constant (Ki) on Mu-type opioid receptor was 9.77 nM; in assay [3] it was 204 nM.
For `CCN(CC)C(=O)c1ccc(C(=C2CCNCC2)c2c(C)cc(NC(=O)COCC(=O)NCCCCCNC(=O)COCC(=O)NC)cc2C)cc1.Cl`, the results for the negative logarithm of the Ki (pKi) in assay [1] and in assay [2] were 5.92 and 5.78, respectively. The values for the inhibition constant Ki (at Mu-type opioid receptor; in assay [3]) were 550 nM and 2880 nM, respectively.
Take `Cl.Oc1ccc2c3c1O[C@H]1c4[nH]c5ccccc5c4C[C@@]4(O)[C@@H](C2)N(CC2CC2)CC[C@]314` [NALTRINDOLE HYDROCHLORIDE]: the values for the pKi in assay [1] and in assay [2] were 8.46 and 8.26, respectively. Besides, the inhibition constant Ki at Mu-type opioid receptor was 16.6 nM; in assay [3], 2.63 nM.
